The record followed here is US20140050778A1, “NUCLEIC ACID BINDING COMPOUNDS, METHODS OF MAKING, AND USE THEREOF” (UNIVERSITY OF ROCHESTER, priority 2010, published 2014).

For one data set, the system named is human fibroblasts. Nature of the data set: MTT toxicity assay. It is filed as cell-based. The following applies: compounds 4 and 5 measured as a mixture, concentrations up to 500 μM. How it is done:
For toxicity studies, mouse myoblasts or human fibroblasts were plated in a 96-well tissue culture plate in DMEM (10% fetal bovine serum, 100 units/ml penicillin, […]) and allowed to grow to approximately 80% confluence at 37° C. under CO2. Varying compound concentrations (up to 1 mM) were incubated with cells (48 hours, 37° C.). Media was then removed, and 3-(4,5-dimethylthiazol-2-yl)-2,5-diphenyltetrazolium bromide (“MTT”) in media was added to each well and incubated at 37° C. for 4 h. After removal of the MTT media, isopropanol (100 pp was added, and absorbance was measured at 600 nm on a Modulus microplate reader (Turner Biosystems).
SPR and fluorescence titration experiments, performed using the protocol described in Examples 3 and 4 above, except using as the target a highly conserved RNA sequence responsible for regulating the production of the Gag-Pol polyprotein via a −1 ribosomal frameshift, which occurs along a “slippery sequence” in gag-pol mRNA (SEQ ID NO: 7). This “frameshift stimulatory sequence” (or “HIV-1 FSS”) consists of an upper stemloop and a lower stem, separated by a purine bulge in the most common types of HIV (FIG. 19). For the fluorescent titration experiments, the upper stemloop of SEQ ID NO: 7 was employed. Cell uptake and toxicity studies were carried out using human fibroblasts according to Example 5 above.

A further data set concerns yeast tRNA. The data set is described as follows: Fluorescence titration control. The following applies: yeast tRNA titrated into a mixture of compounds 4 and 5. It is filed as binding. As to the method: The benzo[g]quinoline moiety is fluorescent, with excitation and emission maxima at 362 nm and 439 nm respectively in methanol. Fluorescence titration binding measurements were performed on a Cary Eclipse fluorescence spectrophotometer using a 10 mm path-length semimicro quartz fluorescence cell with 400 μL sample holding capacity. Absorbance measurements were carried out on a UV-Visible spectrophotometer (Shimadzu, UV-1601PC) using a 1 mL (1 cm path-length) quartz cell. Spectroscopic grade anhydrous methanol used in the measurement of relative quantum yield of the 2-ethyl benzo[g]quinoline carboxylic acid was purchased from Alfa Aesar and was used without further purification. For these measurements, known procedures were used (Lee and Grissom, “Design, Synthesis, and Characterization of Fluorescent Cobalamin Analogues with High Quantum Efficiencies,” Org. Lett. 11:2499-2502 (2009); Joseph R. Lakowicz, Principles of Fluorescence Spectroscopy, 2nd edition (Kluwer Academic/Plenum Publishers, 1999), which are hereby incorporated by reference in their entirety). Briefly, RNA (10 μM stock) in HBS-N buffer was titrated into a solution of 1 μM compound in HBS-N. After each addition of RNA, ten minutes were allowed for equilibration before recording the change in fluorescence at 468.5 nm. […]
Selected equilibrium affinities for (CUG)10 were confirmed by fluorescence titration. […]

For the compound `CCc1nc2cc3ccccc3cc2cc1C(=O)N1CCC[C@H]1C(=O)N[C@@H](C/C=C\C[C@H](NC(=O)[C@@H]1CCCN1C(=O)c1cc2cc3ccccc3cc2nc1CC)C(=O)N[C@@H](CCCCN)C(=O)NCCCN)C(=O)N[C@@H](CCCCN)C(=O)NCCCN` [Compound 4], the “toxicity (MTT)” value in the data set with human fibroblasts is recorded as “no significant toxicity”. Moreover, the “binding of yeast tRNA” value in the data set with yeast tRNA is reported as “No binding”.

Turning to `CCc1nc2cc3ccccc3cc2cc1C(=O)N1CCC[C@H]1C(=O)N[C@@H](C/C=C/C[C@H](NC(=O)[C@@H]1CCCN1C(=O)c1cc2cc3ccccc3cc2nc1CC)C(=O)N[C@@H](CCCCN)C(=O)NCCCN)C(=O)N[C@@H](CCCCN)C(=O)NCCCN` [Compound 5], the “toxicity (MTT)” value with human fibroblasts is “no significant toxicity”. In addition, in the data set with yeast tRNA, the “binding of yeast tRNA” value was “No binding”.
